What was measured:
Assay in all cases: relative viability (nuclei count vs DMSO), 5 days (fraction); higher = more cells survive
NCI-H2087 = tested on: NCI-H2087
In short: (§1)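 Lung cancer cell lines in 1536-well plates got either a single drug or a fixed anchor-drug dose together with five library-drug doses (not always all listed) in √10 steps, by pin tool, on the day after seeding. Nuclei were counted after 5 days, and relative viability is the treated-to-vehicle ratio of nuclei counts. Values are medians of duplicate plates.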

NCI-H1944 = tested on: NCI-H1944
In short: as §1

NCI-H1651 = tested on: NCI-H1651
In short: as §1

LC-2-ad = tested on: LC-2-ad
In short: as §1

LOU-NH91 = tested on: LOU-NH91
In short: as §1

RERF-LC-KJ = tested on: RERF-LC-KJ
In short: as §1

NCI-H2228 = tested on: NCI-H2228
In short: as §1

PC-3 [JPC-3] = tested on: PC-3 [JPC-3]
In short: as §1

NCI-H3122 = tested on: NCI-H3122
In short: as §1

ChaGo-K-1 = tested on: ChaGo-K-1
In short: as §1

NCI-H2170 = tested on: NCI-H2170
In short: as §1

COc1cc2nccc(Oc3ccc(NC(=O)Nc4cc(C)on4)c(Cl)c3)c2cc1OC [Tivozanib] + CC(=O)Nc1cccc(-n2c(=O)n(C3CC3)c(=O)c3c(Nc4ccc(I)cc4F)n(C)c(=O)c(C)c32)c1 [Trametinib] (partner 0.02 µM) gave a relative viability (NCI-H2087; first compound 0.005 µM) of 0.147, a relative viability (NCI-H2087; first compound 0.01581 µM) of 0.211 and a relative viability (NCI-H2087; first compound 0.05 µM) of 0.193. It also gave a relative viability (NCI-H2087; first compound 0.1581 µM) of 0.166, a relative viability (NCI-H2087; first compound 0.5 µM) of 0.243 and a relative viability (NCI-H1944; first compound 0.005 µM) of 0.344. The relative viability (NCI-H1944; first compound 0.01581 µM) was 0.453, the relative viability (NCI-H1944; first compound 0.05 µM) was 0.399 and the relative viability (NCI-H1944; first compound 0.1581 µM) was 0.423. It also gave a relative viability (NCI-H1944; first compound 0.5 µM) of 0.455, a relative viability (NCI-H1651; first compound 0.005 µM) of 0.816 and a relative viability (NCI-H1651; first compound 0.01581 µM) of 0.808. For the same molecule, the relative viability (NCI-H1651; first compound 0.05 µM) was 0.821, the relative viability (NCI-H1651; first compound 0.1581 µM) was 0.866 and the relative viability (NCI-H1651; first compound 0.5 µM) was 0.828. It also gave a relative viability (LC-2-ad; first compound 0.005 µM) of 0.91, a relative viability (LC-2-ad; first compound 0.01581 µM) of 0.849 and a relative viability (LC-2-ad; first compound 0.05 µM) of 0.888. The relative viability (LC-2-ad; first compound 0.1581 µM) was 0.601, the relative viability (LC-2-ad; first compound 0.5 µM) was 0.497 and the relative viability (LOU-NH91; first compound 0.005 µM) was 0.736. The relative viability (LOU-NH91; first compound 0.01581 µM) was 0.805, the relative viability (LOU-NH91; first compound 0.05 µM) was 0.784 and the relative viability (LOU-NH91; first compound 0.1581 µM) was 0.744. For the same molecule, the relative viability (LOU-NH91; first compound 0.5 µM) was 0.767, the relative viability (RERF-LC-KJ; first compound 0.005 µM) was 0.758 and the relative viability (RERF-LC-KJ; first compound 0.01581 µM) was 0.989. The relative viability (RERF-LC-KJ; first compound 0.05 µM) was 0.805, the relative viability (RERF-LC-KJ; first compound 0.1581 µM) was 0.859 and the relative viability (RERF-LC-KJ; first compound 0.5 µM) was 0.805. It also gave a relative viability (NCI-H2228; first compound 0.005 µM) of 0.55, a relative viability (NCI-H2228; first compound 0.01581 µM) of 0.595 and a relative viability (NCI-H2228; first compound 0.05 µM) of 0.514. It also gave a relative viability (NCI-H2228; first compound 0.1581 µM) of 0.249, a relative viability (NCI-H2228; first compound 0.5 µM) of 0.539 and a relative viability (PC-3 [JPC-3]; first compound 0.01581 µM) of 0.686. For the same molecule, the relative viability (PC-3 [JPC-3]; first compound 0.05 µM) was 0.807, the relative viability (PC-3 [JPC-3]; first compound 0.1581 µM) was 0.674 and the relative viability (PC-3 [JPC-3]; first compound 0.5 µM) was 0.811. It also gave a relative viability (NCI-H3122; first compound 0.005 µM) of 0.197, a relative viability (NCI-H3122; first compound 0.01581 µM) of 0.213 and a relative viability (NCI-H3122; first compound 0.05 µM) of 0.229. The relative viability (NCI-H3122; first compound 0.1581 µM) was 0.235, the relative viability (NCI-H3122; first compound 0.5 µM) was 0.321 and the relative viability (ChaGo-K-1; first compound 0.005 µM) was 0.853. It also gave a relative viability (ChaGo-K-1; first compound 0.01581 µM) of 0.89, a relative viability (ChaGo-K-1; first compound 0.05 µM) of 0.875 and a relative viability (ChaGo-K-1; first compound 0.1581 µM) of 0.859. It also gave a relative viability (ChaGo-K-1; first compound 0.5 µM) of 0.868, a relative viability (NCI-H2170; first compound 0.005 µM) of 0.827 and a relative viability (NCI-H2170; first compound 0.01581 µM) of 0.92.

Source: the supplement of paper PMC10307832
